Results taken from US20020065227A1, “Charged compounds comprising a nucleic acid binding moiety and uses therefor” (priority 2000, published 2002).
Values after ≈ are worked out from the molar mass of the structure shown. Like-named read-outs stand apart in the source and are kept apart here.

Tests used:
[1] = tested on: Peptostreptococcus asaccharolytics (29743); assay: MIC, NCCLS broth microdilution; assay type: cell-based; settings: anaerobe
[2] = tested on: Pseudomona aeruginosa (27853); assay: MIC, NCCLS broth microdilution; assay type: cell-based
[3] = tested on: Staphylococcus aureus (29213); assay: MIC, NCCLS broth microdilution; assay type: cell-based
Bacillus subtilis (6633) = assay: MIC, NCCLS broth microdilution; assay type: cell-based
[4] = tested on: Enterococcus faecium (51559) (vacomycin resistant); assay: MIC, NCCLS broth microdilution; assay type: cell-based
[5] = tested on: Streptococcus pyogenes (49339); assay: MIC, NCCLS broth microdilution; assay type: cell-based
[6] = tested on: Candida parapsilosis (10232); assay: MIC, antifungal assay; assay type: cell-based
Micrococcus luteus (381) = assay: MIC, NCCLS broth microdilution; assay type: cell-based
Candida albicans (90028) = assay: MIC, antifungal assay; assay type: cell-based
[7] = tested on: Staphylococcus aureus (33591) (methicillin resistant); assay: MIC, NCCLS broth microdilution; assay type: cell-based
[8] = tested on: Candida albicans (38247) (Polyene resistant); assay: MIC, antifungal assay; assay type: cell-based
[9] = tested on: Enterococcus faecalis (29212); assay: MIC, NCCLS broth microdilution; assay type: cell-based
[10] = tested on: Clostridium perfringens (13124); assay: microbe, parasite or virus in culture; assay type: cell-based
[11] = tested on: Staphylococcus epidermidis (12228); assay: MIC, NCCLS broth microdilution; assay type: cell-based
[12] = tested on: Candida tropicalis (13803); assay: MIC, antifungal assay; assay type: cell-based
[13] = tested on: Corynebacterium Group A (49676); assay: MIC, NCCLS broth microdilution; assay type: cell-based
[14] = tested on: Cryptococcus neoformans (90112); assay: MIC, antifungal assay; assay type: cell-based
Bacillus cereus (11778) = assay: MIC, NCCLS broth microdilution; assay type: cell-based
Esherichia coli (25922) = assay: MIC, NCCLS broth microdilution; assay type: cell-based, Escherichia coli
[15] = tested on: Streptococcus pneumoniae (49619); assay: MIC, NCCLS broth microdilution; assay type: cell-based
[16] = tested on: Propionibacterium acnes (33179); assay: MIC, NCCLS broth microdilution; assay type: cell-based; settings: anaerobe
[17] = tested on: Haemophilus influenzae (49247); assay: MIC, NCCLS broth microdilution; assay type: cell-based; settings: Haemophilus influenzae
[18] = tested on: dsDNA restriction fragment; assay: dsDNA binding, DNase I footprinting on restriction fragment; settings: in words
[19] = tested on: different species of bacteria and fungi; settings: in words
AGTACT = assay: DNase I footprint titration, AGTACT site; assay type: binding; settings: equilibrium association constant Ka; pH 7.0, 22° C.
ACTACT = assay: DNase I footprint titration, ACTACT site; assay type: binding; settings: equilibrium association constant Ka; pH 7.0, 22° C.
ATTACT = assay: DNase I footprint titration, ATTACT site; assay type: binding; settings: equilibrium association constant Ka; pH 7.0, 22° C.
AATACT = assay: DNase I footprint titration, AATACT site; assay type: binding; settings: equilibrium association constant Ka; pH 7.0, 22° C.

Cn1cc(NC(=O)c2cc(NC(=O)c3cc(NC=O)cn3C)cn2C)cc1C(=O)NCCC(=N)N [Distamycin, distamycin, reference compound]
MIC [1]: 8 µg/mL (≈ 16.6 µM) | MIC ([2]; Pseudomona aeruginosa (27853)): >128 µg/mL | MIC ([3]; Staphylococcus aureus (29213)): 32 µg/mL (≈ 66.5 µM) | MIC (Bacillus subtilis (6633); Bacillus subtilis (6633)): 64 to 128 µg/mL | MIC ([4]; Enterococcus faecium (51559), vancomycin resistant): 128 µg/mL (≈ 266 µM) | MIC ([5]; Streptococcus pyogenes (49339), Table Ia: Streptococcus Group A(49339)): 32 µg/mL (≈ 66.5 µM) | MIC ([6]; Candida parapsilosis (10232)): >128 µg/mL | MIC (Micrococcus luteus (381)): 32 µg/mL (≈ 66.5 µM) | MIC (Candida albicans (90028)): >128 µg/mL | MIC ([7]; Staphylococcus aureus (33591), methicillin resistant (MRSA)): 16 µg/mL (≈ 33.2 µM) | MIC [8]: >128 µg/mL | MIC ([9]; Enterococcus faecalis (29212)): 16 to 32 µg/mL | MIC [10]: 8 µg/mL (≈ 16.6 µM) | MIC ([11]; Staphylococcus epidermidis (12228)): 64 µg/mL (≈ 133 µM) | MIC ([12]; Candida tropicalis (13803)): >128 µg/mL | MIC ([13]; Corynebacterium Group A (49676)): 16 µg/mL (≈ 33.2 µM) | MIC ([14]; Cryptococcus neoformans (90112)): >128 µg/mL | MIC (Bacillus cereus (11778); Bacillus cereus (11778)): 8 µg/mL (≈ 16.6 µM) | MIC (Esherichia coli (25922); Escherichia coli (25922)): >128 µg/mL | MIC ([15]; Streptococcus pneumoniae (49619)): 16 µg/mL (≈ 33.2 µM) | MIC [16]: 16 µg/mL (≈ 33.2 µM)

Cn1cc(NC(=O)c2cc(NC(=O)CN=C(N)N)cn2C)cc1C(=O)NCCC(=N)N [Netropsin, netropsin, reference compound]
MIC [2]: > 128 µg/mL | MIC ([3]; Staphylococcus aureus): 4 µg/mL (≈ 9.29 µM) | MIC (Bacillus subtilis (6633); Bacillus subtilis): 4 µg/mL (≈ 9.29 µM) | MIC ([4]; Enterococcus faecium): 8 µg/mL (≈ 18.6 µM) | MIC [17]: 4 µg/mL (≈ 9.29 µM) | MIC ([5]; Streptococcus pyogenes): 8 µg/mL (≈ 18.6 µM) | MIC ([6]; Lodderomyces parapsilosis): 16 µg/mL (≈ 37.2 µM) | MIC ([7]; Staphylococcus aureus, MRSA): 4 µg/mL (≈ 9.29 µM) | MIC ([9]; Enterococcus faecalis): 2 µg/mL (≈ 4.65 µM) | MIC ([11]; Staphylococcus epidermidis): 2 to 4 µg/mL (≈ 4.65 to 9.29 µM) | MIC ([12]; Candida tropicalis): 16 µg/mL (≈ 37.2 µM) | MIC ([13]; Corynebacterium): 0.5 µg/mL (≈ 1.16 µM) | MIC ([14]; Cryptococcus neoformans): 4 µg/mL (≈ 9.29 µM) | MIC (Bacillus cereus (11778); Bacillus cereus): 2 µg/mL (≈ 4.65 µM) | MIC (Esherichia coli (25922); Escherichia coli): 2 µg/mL (≈ 4.65 µM) | MIC ([15]; Streptococcus pneumoniae): 0.125 µg/mL (≈ 0.29 µM)

CN(C)CCCNC(=O)CCNC(=O)c1cc(NC(=O)c2cc(NC(=O)c3nsc(Cl)c3Cl)cn2C)cn1C [V-cc]
dsDNA binding [18]: good binder for dsDNA | Anti-pathogenic properties [19]: significant anti-pathogenic properties

CN(C)CCCNC(=O)CCNC(=O)c1cc(NC(=O)c2cc(NC(=O)c3cc(NC(=O)c4nc(NC(=O)CCCNC(=O)c5cc(NC(=O)c6cc(NC(=O)c7nsc(Cl)c7Cl)cn6C)cn5C)cn4C)cn3C)cn2C)cn1C [VI-c]
Binding Constant, sequence AGTACT (AGTACT): 2e+08 M⁻¹ | Sequence preference of binding [18]: bind ATTACT, and AATACT preferentially to ACTACT and AGTACT | Binding Constant, sequence ACTACT (ACTACT): 1e+08 M⁻¹ | Binding Constant, sequence ATTACT (ATTACT): 1e+10 M⁻¹ | Binding Constant, sequence AATACT (AATACT): 1e+09 M⁻¹
